Measured values published in patent US7910622B2, “Modulation of bacterial quorum sensing with synthetic ligands” (Wisconsin Alumni Research Foundation, priority 2007, dated 2011).
“And” between values parts separate entries of the source, which are not always exact repeats. Equal values may be shown once. Read-outs that look alike come from different tables or passages of the source.

Legend:
[1] = molecular target: T1, TraR (Agrobacterium tumefaciens, UniProt P33905); experiment: cell-based; details: for A. tumefaciens-TraR Activation [%]: 10 μM ligand; for A. tumefaciens-TraR Activation [%] / A. tumefaciens-TraR Inhibition [%] / inhibition at 10 µM: A. tumefaciens WCF47 (pCF372), normalized to OOHL; for A. tumefaciens-TraR Inhibition [%]: 10 μM synthetic ligand against 100 nM OOHL; for activation at 10 µM: read-out: A. tumefaciens-TraR Activation [%]; for inhibition at 10 µM: read-out: A. tumefaciens-TraR Inhibition [%], 10 μM synthetic ligand against 100 nM OOHL
T1 construct: These strains lack their AHL synthase (I) genes, but retain their native R genes; endogenous in cells; host or cells: A. tumefaciens WCF47 (Δ-traI) with PtraI-lacZ plasmid pCF372
T1 sequence (P33905 whole entry): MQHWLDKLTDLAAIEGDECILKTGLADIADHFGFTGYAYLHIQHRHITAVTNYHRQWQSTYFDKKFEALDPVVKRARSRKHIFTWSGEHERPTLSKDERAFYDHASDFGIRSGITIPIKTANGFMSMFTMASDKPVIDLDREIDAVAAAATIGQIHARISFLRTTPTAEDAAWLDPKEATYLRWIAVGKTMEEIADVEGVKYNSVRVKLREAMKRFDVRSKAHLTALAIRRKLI

[2] = molecular target: T2, LasR (Pseudomonas aeruginosa, UniProt P25084); experiment: cell-based; format: cell-based; details: for E. coli-LasR Inhibition [%]: 5 μM synthetic ligand against 7.5 nM OdDHL; for E. coli-LasR Inhibition [%] / inhibition at 5 µM: E. coli DH5α (pJN105L pSC11), normalized to OdDHL; for inhibition at 5 µM: read-out: E. coli-LasR Inhibition [%], 5 μM synthetic ligand against 7.5 nM OdDHL
T2 construct: expressed in transfected cells; host or cells: E. coli DH5α (pJN105L pSC11), arabinose-induced
T2 sequence (P25084 whole entry): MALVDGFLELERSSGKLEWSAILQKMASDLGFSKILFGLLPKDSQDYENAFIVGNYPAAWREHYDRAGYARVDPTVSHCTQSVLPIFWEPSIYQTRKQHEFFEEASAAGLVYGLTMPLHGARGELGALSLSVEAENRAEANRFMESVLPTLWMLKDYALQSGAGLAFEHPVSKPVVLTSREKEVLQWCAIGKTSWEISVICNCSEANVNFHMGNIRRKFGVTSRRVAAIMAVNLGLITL
How it was run: (§1)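 E. coli DH5α carrying pJN105L/pSC11 grown to OD600 0.3, LasR expression induced with arabinose (4 mg/mL), then incubated with AHLs at 37 °C to OD600 0.45. LasR activity read by β-galactosidase reporter assay; IC50/EC50 from sigmoidal dose-response fits.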

[3] = molecular target: T2, LasR; experiment: cell-based; details: for E. coli-LasR Activation [%]: 5 μM ligand; for E. coli-LasR Activation [%] / activation at 5 µM: E. coli DH5α (pJN105L pSC11), normalized to OdDHL; for activation at 5 µM: read-out: E. coli-LasR Activation [%], 5 μM ligand
How it was run: as §1

[4] = molecular target: T3, LuxR (Aliivibrio fischeri, UniProt P35327); experiment: cell-based; format: cell-based, Vibrio fischeri; details: for V. fischeri-LuxR Inhibition [%]: 5 μM synthetic ligand against 5 μM OHHL; for V. fischeri-LuxR Inhibition [%] / inhibition at 5 µM: V. fischeri ES114 (Δ-luxI), normalized to OHHL; for IC50: LuxR IC50, determined against 5 μM OHHL; for inhibition at 5 µM: read-out: V. fischeri-LuxR Inhibition [%], 5 μM synthetic ligand against 5 μM OHHL
T3 construct: a Δ-luxI derivative of V. fischeri ES114, in which the native lux operon behaves as the bioluminescent reporter; endogenous in cells; host or cells: V. fischeri ES114 (Δ-luxI)
T3 sequence (P35327 whole entry): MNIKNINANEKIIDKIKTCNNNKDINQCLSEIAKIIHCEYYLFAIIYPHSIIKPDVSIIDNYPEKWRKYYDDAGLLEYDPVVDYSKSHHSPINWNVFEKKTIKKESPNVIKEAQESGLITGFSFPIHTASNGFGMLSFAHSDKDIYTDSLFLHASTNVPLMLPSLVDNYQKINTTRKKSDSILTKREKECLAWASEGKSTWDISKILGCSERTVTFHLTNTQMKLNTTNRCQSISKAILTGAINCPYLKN
How it was run: (§2)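 Whole-cell luminescence reporter in V. fischeri ES114 (WT, Δ-luxI or Δ-luxR) or E. coli, overnight cultures diluted 1:10 and grown with compound at RT (E. coli 30° C) to OD600 0.35-0.4 (4-6 h). Luminescence normalized to cell density, triplicates; EC50/IC50 from sigmoidal fit.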

[5] = molecular target: T3, LuxR; experiment: cell-based; set-up: species or system Vibrio fischeri; details: V. fischeri ES114 (Δ-luxI), normalized to OHHL; for V. fischeri-LuxR Activation [%]: 200 μM ligand; for activation at 200 µM: read-out: V. fischeri-LuxR Activation [%], 200 μM ligand
How it was run: as §2

[6] = tested on: elastase B production; experiment: microbe, parasite or virus in culture; format: cell-based, Pseudomonas aeruginosa; details: P. aeruginosa PAO1; 200 μM
Method: Elastase B production assay in P. aeruginosa. Elastase B activity in P. aeruginosa was measured according to a previously reported method, with the following modifications. P. aeruginosa PAO1 was grown overnight in LB media at 37° C., after which it was diluted to an OD600=0.1. Portions (2 mL) of this culture was added to test tubes containing synthetic compounds to give final concentrations of 20 μM or 200 μM and incubated for 12-14 h at 37° C. with 200 rpm shaking. The OD600 was measured for each tube, after which the contents of the tubes were filtered through a […] Whatman filter to remove all cellular matter. A 100 μL-aliquot of the supernatant was added to 900 μL of an Elastin Congo Red Solution (5 mg of Elastin Congo red substrate per 1 mL of 100 mM Tris-HCl, 1 mM CaCl2 (pH 7.2)) and incubated for 12 h at 37° C. with 250 rpm shaking. The contents of these tubes were then filtered in order to remove unreacted Elastin Congo red substrate. Elastase B activity was then calculated (normalized) by dividing the absorbance of the cleaved Congo red (OD492) by the cell density (OD600 of the cells before first filtration).
Elastase B production assay in P. aeruginosa. Elastase B activity in P. aeruginosa was measured according to a previously reported method, with the following modifications. P. aeruginosa PAO1 was grown overnight at 37° C. and then diluted 1:10 with fresh LB medium. Portions (2 mL) of this culture were added to test tubes containing synthetic compounds to give final compound concentrations of 20 μM or 200 μM. The tubes were incubated for 12-14 h at 37° C. The OD600 was measured for each tube, after which the contents of the tubes were filtered through a 0.2 μm Whatman filter to remove all cellular matter. A 100 μL aliquot of the supernatant was added to 900 μL of an elastin-Congo red solution (5 mg of elastin-Congo red substrate per 1 mL of buffer (100 mM Tris-HCl, 1 mM CaCl2, pH 7.2)) and incubated for 12 h at 37° C. with 250 rpm shaking. The contents of these tubes were then filtered in order to remove unreacted elastin-Congo red substrate, and the supernatant containing cleaved Congo red was isolated. A 200 μL aliquot of the supernatant was added to a 96-well multititer plate, and the OD492 was measured. Elastase B activity was calculated by dividing the absorbance of the cleaved Congo red solution (OD492) by the cell density (OD600 of the cells before first filtration).

[7] = determined against 100 nM OOHL, read-out: TraR IC50

| Molecule | A. tumefaciens-TraR Activation [%] [1] [%] | A. tumefaciens-TraR Inhibition [%] [1] [%] | IC50 [1, 7] [nM] | E. coli-LasR Inhibition [%] [2] | E. coli-LasR Activation [%] [3] [%] | V. fischeri-LuxR Inhibition [%] [4] [%] | V. fischeri-LuxR Activation [%] [5] [%] | elastase B production inhibition [6] [%] | EC50 ([3]; read-out: LasR EC50) [nM] | IC50 [1] [nM] | activation at 10 µM [1] [%] | inhibition at 10 µM [1] [%] | inhibition at 5 µM [2] [%] | activation at 5 µM [3] [%] | IC50 [4] [nM] | inhibition at 5 µM [4] [%] | activation at 200 µM [5] [%] | IC50 ([2]; determined against 7.5 nM OdDHL, read-out: LasR IC50) [nM] |
| --- | --- | --- | --- | --- | --- | --- | --- | --- | --- | --- | --- | --- | --- | --- | --- | --- | --- | --- |
| N-(phenylbutanoyl)-L-homoserine lactone [compound 6, reference compound] | 2 | 93 | 1120 | ~25% and ~20% | 3 | 70 | 3 | – | – | – | – | – | – | – | – | – | – | – |
| D-enantiomer of OOHL [A24] | 4 | 6 | – | 16% | 0 | 7 | 2 | – | – | – | – | – | – | – | – | – | – | – |
| O=C(CCCc1c[nH]c2ccccc12)N[C@H]1CCOC1=O [compound 9, indole AHL, reference compound] | 0 | – | – | – | – | – | – | 66 | – | – | – | – | – | – | – | – | – | – |
| 4-N-tertbutoxycarbonyl-PHL [B25] | 0 | 11 | – | 10% | 27 | 33 | 2 | – | > 200000 | – | – | – | – | – | – | – | – | – |
| C=CCCC(=O)N[C@H]1CCOC1=O [A23] | 0 | 5 | – | 12% | 0 | 18 | 2 | – | – | – | – | – | – | – | – | – | – | – |
| CCCCCCCCCCCS(=O)(=O)N[C@H]1CCOC1=O [A16] | 0 | 29 | – | 21% | 0 | 74 | 1 | – | – | – | – | – | – | – | – | – | – | – |
| O=C(CCCc1c[nH]c2ccccc12)N[C@@H]1CCOC1=O [A29] | 0 | 9 | – | 13% | 0 | 29 | 2 | – | – | – | – | – | – | – | – | – | – | – |
| CCCCCCC(=O)NC1CCOC1=O (centres unmarked) [compound 4] | – | – | – | – | – | – | – | – | – | 690 | 4 | ~90 | ~25 | 0 | 1360 | ~76 | ~25 | – |
| CC(C)(C)OC(=O)NCCCCC(=O)N[C@H]1CCOC1=O [A22] | 0 | 10 | – | 15% | 3 | 47 | 2 | – | – | – | – | – | – | – | – | – | – | – |
| CCCCCCCC(=O)N[C@H]1CCOC1=O [A3, C8 AHL] | – | – | 770 | 43% | – | – | – | – | – | – | 7 | 83 | ≥ 50 | 1 | 770 | 86 | 12 | 1750 |
| O=C(CCC(=O)OC(C(=O)c1ccccc1)c1ccccc1)N[C@H]1CCOC1=O (some centres unmarked) [D19] | 0 | 11 | – | 17% | 7 | 30 | 1 | – | – | – | – | – | – | – | – | – | – | – |
| O=C(CC1CCCC1)N[C@H]1CCOC1=O [B12] | 0 | 11 | – | 19% | 0 | 57 | 3 | – | – | – | – | – | – | – | – | – | – | – |
| 4-amino PHL [B26] | 0 | 5 | – | 8% | 0 | 12 | 3 | – | – | – | – | – | – | – | – | – | – | – |
| CC(=O)c1ccc(OCC(=O)N[C@H]2CCOC2=O)cc1C [D17] | 1 | 92 | 1400 | 26% | 0 | 50 | 2 | – | – | – | – | – | – | – | – | – | – | – |
| CCOC(=O)/C=C/C(=O)N[C@H]1CCOC1=O [A20] | 0 | 3 | – | 13% | 0 | 37 | 1 | – | – | – | – | – | – | – | – | – | – | – |
| O=C(NC1CCOC1=O)c1ccc(N=Nc2ccccc2)cc1 (centres unmarked) [D20] | 0 | 4 | – | 12% | 0 | 46 | 2 | – | – | – | – | – | – | – | – | – | – | – |
